Laboratory results from patent publication US20200299783A1 (Board of Regents, The University of Texas System, priority 2019, published 2020).
Entries after “also recorded” stand apart in the source; their conditions may differ.

How the values were obtained:
[1] = test system: ibrutinib-resistant high-grade B-cell lymphoma PDX
[2] = test system: ibrutinib-sensitive MCL cell line, Mino; assay: Mitochondria respiration (OCR, Seahorse), ibrutinib-sensitive Mino; format: cell-based, human; settings: 20 nM for 1 h, vs control, p=0.0832, FIG. 5B
Description: The oxygen consumption rate (OCR) was measured using a Seahorse XF-96 Metabolic Flux Analyzer (Seahorse Bioscience, North Billerica, Mass., USA). Briefly, MCL cells were treated with/without IACS-010759 (20 nM) for 1 h. On the day of analysis, 2-4×10^5 MCL cells/well were adhered to XF 96-well cell culture microplates (Seahorse Biosciences) pre-coated with Cell-Talc (BD Biosciences), by centrifugation at 1,000×g, without brakes for 5 min, then changed to mitochondria stress medium supplemented with 25 mM glucose, 2 mM sodium pyruvate, and 2 mM glutamine (pH 7.4), followed by incubation at 37° C. in a non-CO2 incubator for 1 h. […], FCCP (2 μM), and Rotenone/Antimycin A (0.5 μM), were loaded into drug delivery ports and injected sequentially at the indicated time points. After each injection, 4 time points were recorded with approximately 35 min between each injection. […] over time was normalized to protein content measured by sulforhodamine B (SRB) staining and plotted using Graph-Pad Prism.

[3] = test system: ibrutinib-sensitive MCL cell lines (Mino and JeKo-1); assay: Cell growth assay, ibrutinib-sensitive MCL cell lines; format: cell-based, human; settings: 72-hour incubation, FIG. 5A
Description: Cells were seeded in triplicate in a 96-well plate with 2×10^5 cells per well and treated with indicated dose of single agent or two compound combination for 24-72 hours. In the last 30 min, 50 μL of CellTiter 96 Aqueous One Solution Reagent were added to the culture wells and incubated at 37° C. in 5% CO2. Light absorbance of formazan was measured at 495 nm on a universal microplate reader equipped with KC4 software (Biotek Instruments, Winooski, Vt., USA).

[4] = test system: ibrutinib-sensitive MCL cell lines; assay: ROS levels by flow cytometry, ibrutinib-sensitive MCL cell lines; format: cell-based, human; settings: FIG. 5E
Description: Mitochondria membrane potential, mitochondria mass, ROS, and apoptosis analysis. MCL cells were seeded and cultured overnight before treatment to reach log phase. Respective cell lines were plated at 2×10^6 cells/well in 6-well plates in phenol-red and pyruvate-free DMEM assay medium containing 5 mM glucose (Sigma), 2 mM GlutaMAX (Gibco, ThermoFisher Scientific), and 5% dialyzed FCS (Gibco). Vehicle, IACS-0107059 (20 nM), or (1-5 μM) BPTES was added and replenished every day until the indicated time points. ROS and mitochondria membrane potential were evaluated 24 hours after treatment. […] TMRE dye fluorescence retained in the cells was detected by flow cytometry with excitation and emission of 548/574 nm. Data were analyzed with NovoExpress (ACEA Biosciences, San Diego, Calif., USA) or FlowJo10 (Tree Star, Ashland, Oreg., USA).
To measure ROS levels, treated cells were harvested, stained with […] CM-H2DCF-DA (C6827, Molecular Probes, Invitrogen) in PBS for 30 min at 37° C., washed twice with PBS, and analyzed in a flow cytometer (FACS Caliber, BD Biosciences) by recording the green fluorescence of oxidized DCF. The mean fluorescence of 10,000 analyzed cells (corrected for auto fluorescence) was taken as a readout for the intracellular ROS load.

[5] = test system: Z-138 and Maver-1 MCL cell lines; assay: Immunoblotting of cleaved Caspase-7 and PARP; format: cell-based, human; settings: 20 nM IACS-010759 and/or 5 μM BPTES for 72 hours; FIG. 5G
Description: Cells were cultured with single agent or combination therapy in the presence or absence of caspase inhibitors. Cells were harvested, washed twice with cold PBS, and lysed with lysis buffer (Cell Signaling, Danvers, Mass., USA). Cell lysates were kept on ice for 30 min and centrifuged at 13,000 g for 10 min at 4° C. For the detection of cytosolic cytochrome c, the Cytosol Fractionation Kit (BioVision, Milpitas, Calif., USA) was utilized to acquire cytosolic fractions according to the manufacturer's instructions. Supernatants were collected, and the protein content of each fraction was determined using a Bio-Rad Bradford assay (Bio-Rad, Hercules, Calif., USA). Samples were boiled in loading buffer and separated by 10% SDS-PAGE. After electrophoresis, the proteins were transferred onto a nitrocellulose membrane (Bio-Rad), which was incubated with blocking solution (5% nonfat dry milk in PBS containing 0.05% Tween-20) for 2 h and immunoblotted with SLC16A1 (Novus, St. Louis, Mo., USA), SLC1A5, BTK, and p16INK4a, and GAPDH (Cell Signaling, Danvers, Mass., USA) antibodies. The membrane was finally visualized by incubating the membrane with a chemiluminescence Western blot kit (Pierce Biotechnology, Rockford, Ill., USA).

[6] = test system: ibrutinib-resistant Z-138 and Maver-1 cell lines; assay: Mitochondria membrane potential (TMRE), ibrutinib-resistant MCL cell lines; format: cell-based, human; settings: 20 nM IACS-010759 and/or 5 μM BPTES for 24 hours; FIGS. 5C & 5D
Description: Mitochondria membrane potential, mitochondria mass, ROS, and apoptosis analysis. MCL cells were seeded and cultured overnight before treatment to reach log phase. Respective cell lines were plated at 2×10^6 cells/well in 6-well plates in phenol-red and pyruvate-free DMEM assay medium containing 5 mM glucose (Sigma), 2 mM GlutaMAX (Gibco, ThermoFisher Scientific), and 5% dialyzed FCS (Gibco). Vehicle, IACS-0107059 (20 nM), or (1-5 μM) BPTES was added and replenished every day until the indicated time points. ROS and mitochondria membrane potential were evaluated 24 hours after treatment. To determine mitochondria membrane potential (Δψm), treated cells were loaded with MitoStatus tetramethylrhodamine, ethyl ester (TMRE) (BD Biosciences) at 37° C. for 15 min and washed with PBS twice to remove residual TMRE. TMRE dye fluorescence retained in the cells was detected by flow cytometry with excitation and emission of 548/574 nm. Data were analyzed with NovoExpress (ACEA Biosciences, San Diego, Calif., USA) or FlowJo10 (Tree Star, Ashland, Oreg., USA).

[7] = test system: ibrutinib-resistant Z-138 MCL cells; assay: Apoptosis assay (Annexin-V/PI), Z-138; format: cell-based, human; settings: 72 hours, 20 nM IACS-010759 and/or 5 μM BPTES, FIGS. 5F & 11E
Description: Apoptosis assays. Annexin V-binding assay was used to detect the induction of apoptosis. Cells were seeded in 48-well plates with single agent or combination therapy for various times, or with different concentrations for 48 hours. To quantify the percentages of cells undergoing apoptosis, Annexin V-FITC was used. Briefly, cells were washed twice with cold PBS and then suspended in binding buffer at a concentration of 1×10^6 cells/mL. After incubation, 100 μL of the solution was transferred to a 5-mL tube, to which 5 μL of Annexin V-FITC and 5 μL of PI are added. The tube was gently vortexed and incubated for 15 min at room temperature in dark. At the end of the incubation, 300 μL of binding buffer was added. Flow cytometric analysis was performed immediately with a Novocyte Flow Cytometer (ACEA Biosciences, San Diego, Calif., USA). Data were analyzed with NovoExpress (ACEA Biosciences, San Diego, Calif., USA) or FlowJo10 (Tree Star, Ashland, Oreg., USA).

Cc1nc(-c2nc(-c3ccc(OC(F)(F)F)cc3)no2)nn1Cc1cccc(N2CCC(S(C)(=O)=O)CC2)c1 [IACS-010759]
body weight vs vehicle ([1]; 10 mg/kg oral gavage 5 consecutive days/week, p=0.1964, FIG. 12C): not significantly different
tumor growth by tumor volume ([1]; IACS-010759 10 mg/kg 5 days/week (p<0.0001 vs vehicle), ibrutinib 50 mg/kg daily (p=0.7227), oral gavage, FIG. 12A): significantly inhibited tumor growth
tumor growth by human (32M levels) ([1]; IACS-010759 10 mg/kg 5 days/week (p=0.0003 vs vehicle), ibrutinib 50 mg/kg daily (p=0.6911), FIG. 12B): significantly inhibited tumor growth
survival benefit ([1]; compared with vehicle- and ibrutinib-treated mice, FIG. 12D): greater than 20 days
survival of the ibrutinib-resistant PDX mice ([1]; n=5, vs vehicle p=0.0035, vs ibrutinib p=0.0035, FIG. 12D): significantly prolonged the survival
OCR (oxygen consumption rate) [2]: little effect; also recorded: No significant difference
inhibition of proliferation (cell growth inhibition) [3]: very little effect
ROS production [4]: not in the -sensitive cell lines
caspase 7 activation and PARP cleavage [5]: induced caspase 7 activation and PARP cleavage
mitochondrial potential (Δψm, TMRE) [6]: decreased
apoptosis [7]: 42%
